Source: patent US20230346831A1, “METHODS FOR TREATING […] USING LOW DOSE CARBON MONOXIDE” (priority 2020, published 2023)
Values joined by “and” are separate entries in the source; they are usually repeats but may differ in a detail not shown here. Identical values can stand only once.

Test system: MCF7/TGL cells
Assay: metabolomic assay (polar metabolite profiling, mass spectrometry)
Type: cell-based, human
Conditions: MCF7/TGL cells treated with CO, replicates CO 1-3
Procedure: Extraction and analysis were performed with the same parameters as the method disclosed in FIG. 7.
7 × 10^6 cells were seeded in 10-cm cell culture plates with DMEM containing 10% FBS, 0.2 mM L-glutamine and 1% penicillin/streptomycin. Additionally, MCF7/TGL/pQ was cultured in media containing 0.5 µgml^-1 puromycin and 25 mM HEPES. After 16 hours of incubation, metabolites were extracted from the cells using 80% methanol. The remaining steps were carried out by Weill Cornell Medicine Proteomics and Metabolomics Core Facility according to M. D. Goncalves et al., Proc Natl Acad Sci USA 115, E743-E752 (2018). All data analyses were done using MetaboAnalyst 4.0 (www.metaboanalyst.ca/).
To investigate whether 250 ppm CO mimics hypoxia, the HiF1α protein levels were examined in CO treated MCF7/TGL and MDA-MB-231/TGL cells. […] To determine whether 250 ppm CO affects metabolism, polar metabolites were profiled using two breast cancer cell lines, MCF7/TGL and MDA-MB-231/TGL (FIGS. 7-9).

What does the source list for `[C-]#[O+]` [CO, Carbon monoxide]?
Peak Height 2-Ketobutyric acid (HMDB00005): 4,031,318 and 4,391,029 and 5,247,754; Peak Height Deoxyuridine (HMDB00012): 4,052 and 3,614 and 4,205; Peak Height Carnosine (HMDB00033): 2,611,797 and 2,457,728 and 2,635,558; Peak Height Adenine (HMDB00034): 319,396 and 405,129 and 608,706; Peak Height Dihydrobiopterin (HMDB00038): 37,904,750 and 45,778,470 and 54,551,140; Peak Height Betaine (HMDB00043): 211,641,600 and 205,281,000 and 256,902,700; Peak Height Ascorbic acid (HMDB00044): 1,179,857 and 2,029,092 and 5,154,497; Peak Height Adenosine monophosphate (HMDB00045): 595,508 and 473,948 and 497,428; Peak Height Adenosine (HMDB00050): 14,622 and 14,037 and 23,296; Peak Height Argininosuccinic acid (HMDB00052): 180,070 and 286,271 and 472,100; Peak Height L-Carnitine (HMDB00062): 275,929,100 and 289,061,800 and 291,180,600; Peak Height Creatine (HMDB00064): 394,311,900 and 394,104,400 and 478,205,800; Peak Height cis-Aconitic acid (HMDB00072): 11,654,680 and 13,826,410 and 17,813,720; Peak Height Cytidine triphosphate (HMDB00082): 248,084 and 155,802 and 221,285; Peak Height Glycerophosphocholine (HMDB00086): 299,915,900 and 348,438,900 and 459,259,100; Peak Height Cytidine (HMDB00089): 104,165 and 69,105 and 173,745; Peak Height Dimethylglycine (HMDB00092): 6,279,555 and 7,567,884 and 7,137,536; Peak Height Citric acid (HMDB00094): 83,266,830 and 83,863,100 and 100,258,700; Peak Height Cytidine monophosphate (HMDB00095): 93,671 and 115,860 and 141,423; Peak Height Choline (HMDB00097): 183,705,300 and 191,547,400 and 211,305,800; Peak Height L-Cystathionine (HMDB00099): 13,082,840 and 16,491,010 and 22,978,520; Peak Height D-Glucose (HMDB00122): 24,253,400 and 27,009,740 and 49,287,950; Peak Height Glycine (HMDB00123): 97,069,490 and 60,912,580 and 81,769,040; Peak Height Fructose 6-phosphate (HMDB00124): 689,466 and 869,013 and 1,084,547; Peak Height Glutathione (HMDB00125): 166,253,500 and 185,818,800 and 224,175,500; Peak Height Glycerol3-phosphate (HMDB00126): 242,288 and 358,077 and 520,107; Peak Height D-Glucuronic acid (HMDB00127): 193,639 and 229,627 and 245,391; Peak Height Fumaric acid (HMDB00134): 5,149,166 and 6,086,688 and 8,204,115; Peak Height L-Glutamic acid (HMDB00148): 344,240,500 and 392,276,300 and 563,702,200; Peak Height Hypoxanthine (HMDB00157): 207,108 and 78,064 and 86,812; Peak Height L-Tyrosine (HMDB00158): 58,933,980 and 62,662,290 and 101,701,400; Peak Height L-Phenylalanine (HMDB00159): 287,943,500 and 304,931,600 and 425,257,300; Peak Height L-Alanine (HMDB00161): 24,164,680 and 26,271,210 and 37,606,940; Peak Height L-Proline (HMDB00162): 456,504,200 and 470,321,900 and 561,265,500; Peak Height L-Threonine (HMDB00167): 103,403,600 and 114,367,100 and 144,573,600; Peak Height L-Asparagine (HMDB00168): 42,196,450 and 47,225,620 and 55,751,170; Peak Height L-Isoleucine (HMDB00172): 339,480,000 and 333,493,200 and 481,854,600; Peak Height Inosinic acid (HMDB00175): 22,764 and 28,902 and 46,283; Peak Height L-Histidine (HMDB00177): 295,632,700 and 322,360,800 and 456,145,200; Peak Height L-Lysine (HMDB00182): 41,138,540 and 40,717,620 and 74,426,720; Peak Height Alpha-Lactose (HMDB00186): 261,525 and 290,474 and 303,327; Peak Height L-Serine (HMDB00187): 22,682,210 and 24,881,370 and 27,375,240; Peak Height L-Lactic acid (HMDB00190): 135,248,600 and 168,348,200 and 288,458,500; Peak Height L-Aspartic acid (HMDB00191): 12,945,220 and 18,829,880 and 30,552,150; Peak Height L-Acetylcarnitine (HMDB00201): 191,662,400 and 208,376,400 and 217,883,700; Peak Height N6-Acetyl-L-lysine (HMDB00206): 126,221 and 143,548 and 210,190; Peak Height Oxoglutaric acid (HMDB00208): 24,674,800 and 27,743,170 and 32,411,680; Peak Height Pantothenic acid (HMDB00210): 49,604,040 and 57,015,540 and 93,443,310; Peak Height Myoinositol (HMDB00211): 1,493,285 and 1,572,114 and 2,893,583; Peak Height Ornithine (HMDB00214): 3,323,027 and 3,678,113 and 4,669,739; Peak Height NADP (HMDB00217): 35,994 and 44,669 and 56,121; Peak Height Orotic acid (HMDB00226): 107,743 and 166,715; Peak Height Thiamine (HMDB00235): 13,320,550 and 15,145,370 and 21,979,980; Peak Height Pyruvic acid (HMDB00243): 6,830,386 and 7,616,124 and 9,628,515; Peak Height Riboflavin (HMDB00244): 8,515 and 36,944; Peak Height Taurine (HMDB00251): 213,761,300 and 213,696,600 and 188,154,600; Peak Height Succinic acid (HMDB00254): 3,099,054 and 3,989,967 and 6,160,312; Peak Height Thymine (HMDB00262): 7,867,191 and 9,149,847 and 12,133,270; Peak Height Phosphoenolpyruvic acid (HMDB00263): 3,181,575 and 5,081,852 and 6,959,276; Peak Height Pyroglutamic acid (HMDB00267): 70,921,790 and 82,143,660 and 125,886,000; Peak Height Thymidine (HMDB00273): 18,849 and 10,836 and 11,271; Peak Height Uridine triphosphate (HMDB00285): 972,321 and 740,370 and 1,159,635; Peak Height Uridine diphosphate glucose (HMDB00286): 3,510,195 and 3,063,631 and 4,862,560; Peak Height Uridine 5′-monophosphate (HMDB00288): 35,559 and 34,351 and 45,597; Peak Height Uric acid (HMDB00289): 2,364,329 and 2,512,157 and 4,422,182; Peak Height Uridine diphosphate-N-acetylglucosamine (HMDB00290): 38,715,250 and 42,157,110 and 45,820,290; Peak Height Xanthine (HMDB00292): 3,106,304 and 2,715,740 and 5,495,149; Peak Height Uridine 5′-diphosphate (HMDB00295): 297,075 and 234,752 and 314,015; Peak Height Uridine (HMDB00296): 51,402 and 29,724 and 61,581; Peak Height Uracil (HMDB00300): 621,176 and 684,209 and 956,261; Peak Height Urocanicacid (HMDB00301): 330,874 and 577,556 and 198,149; Peak Height 3-Hydroxymethylglutaric acid (HMDB00355): 5,766,106 and 4,010,368 and 3,996,699; Peak Height Allantoin (HMDB00462): 1,483,552 and 1,936,773 and 3,316,178; Peak Height Caprylic acid (HMDB00482): 3,978,947 and 2,718,335 and 2,586,172; Peak Height Aminoadipic acid (HMDB00510): 5,713,433 and 5,346,300 and 7,560,774; Peak Height L-Arginine (HMDB00517): 64,328,130 and 65,745,300 and 95,595,630; Peak Height Adenosine triphosphate (HMDB00538): 1,853,382 and 1,283,500 and 2,002,755; Peak Height Creatinine (HMDB00562): 20,992,210 and 21,746,470 and 37,545,350; Peak Height Galactonic acid (HMDB00565): 8,090,935 and 11,406,370 and 14,258,950; Peak Height D-Arabitol (HMDB00568): 250,315 and 263,626 and 418,856; Peak Height D-2-Hydroxyglutaric acid (HMDB00606): 460,608 and 570,887 and 905,587; Peak Height Gluconic acid (HMDB00625): 6,277,480 and 8,930,573 and 14,396,540
